Data as given in patent US12433869B2, “Preventing and treating malaria” (priority 2019, dated 2025).

Assays:
[1] = system: RBC membrane permeability; experiment: Effect of 5-HT on cell membrane permeability of healthy RBCs (Example 3); format: cell-based, human
Protocol: A sample of whole blood from a healthy volunteer was drawn into ACD anticoagulant. The sample was then treated with 5-HT (900 ng/mL), and cell membrane permeability was evaluated 5 minutes after treatment.

[2] = system: RBC membrane permeability to water; experiment: Cell scan of whole blood contacted with agents (Example 2), Pk0 measured; format: cell-based, human; conditions: for Pk0: whole blood of healthy volunteer in ACD, agent at the concentration listed in Table 1
Protocol: A sample of whole blood from a healthy volunteer was drawn into ACD anticoagulant. The unwashed sample was divided into aliquots and was analyzed using the Prior Shine Technology and/or the Provided Cell Scanning Technologies. The following outputs were obtained from the sample:
Using the technologies described herein, a cell-by-cell analysis was converted into a plot of percent change of cell volume vs. osmolality (“Cell Scan Plot”) by converting the individual peak voltage into a cell volume, then calculating a mean volume for an aliquot of cells, and plotting the means to generate the Cell Scan Plot. The percentage change of cell volume at each osmolality is calculated and compared to the mean cell volume of an isotonic cell (e.g., FIG. 1b). On such a plot, Pk0 (see 101) is the osmotic pressure at which the net water flow is zero (i.e., when a cell achieved its maximum volume, i.e., when it is a perfect sphere).
A sample of whole blood from a healthy volunteer was drawn into ACD anticoagulant. Blood samples were divided into aliquots, and each sample was contacted with an agent at concentrations consistent with the agent's in vivo concentration. […] Five minutes after exposure to an agent, the blood sample was evaluated for cell membrane permeability and Pk0 was measured.

Row | SMILES | Pk0 after treatment ([1]; 5-HT 900 ng/mL, 5 minutes after treatment, normal Pk0 approx. 140 before) | Pk0 shift after contacting with 5-HT ([1]; FIG. 5, RBCs of normal healthy individual) | Pk0 [2] | Pk0 lowered to ([2]; after 10 minutes)
1 | NCCc1c[nH]c2ccc(O)cc12 [Agent 5-HT, 5-hydroxytryptamine] | approx. 110 mOsm/kg | approx. 30 mOsm/kg | 110 mOsm/kg | –
2 | OC[C@H]1O[C@@H](O[C@H]2[C@H](O)[C@@H](O)C(O)O[C@@H]2CO)[C@H](O)[C@@H](O)[C@H]1O (some centres unmarked) [Lactose] | – | – | – | 100 mOsm/kg
3 | C[C@@H]1[C@H](O)[C@@H](C)/C=C/C=C/C=C/C=C/C=C/C=C/C=C/[C@H](O[C@@H]2O[C@H](C)[C@@H](O)[C@H](N)[C@@H]2O)C[C@@H]2O[C@](O)(C[C@@H](O)C[C@@H](O)[C@H](O)CC[C@@H](O)C[C@@H](O)CC(=O)O[C@H]1C)C[C@H](O)[C@H]2C(=O)O [Amphotericin B] | – | – | 85 mOsm/kg | –
